Laboratory results as given in the supplement of paper PMC10307832.

Tests used:
Assay in all cases: relative viability (nuclei count vs DMSO), 5 days (fraction); higher = more cells survive
[1] = test system: NCI-H2023
Procedure, shortened: (§1)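 The day after seeding in 1536-well plates, lung cancer cell lines were treated by pin tool with a single drug, or with a fixed anchor-drug dose together with five library-drug doses (not always all listed) in √10 steps. After 5 days, a combined fix-and-stain solution (final 0.05% Triton X-100, 1% formaldehyde, 1 ug/ml Hoechst) was added. Nuclei counted on 4× images gave relative viability as treated counts over vehicle counts, reported as the median of duplicate plates.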

[2] = test system: SW 900
Procedure, shortened: as §1

[3] = test system: NCI-H1915
Procedure, shortened: as §1

[4] = test system: UMC-11
Procedure, shortened: as §1

[5] = test system: NCI-H1975
Procedure, shortened: as §1

[6] = test system: LC-2-ad
Procedure, shortened: as §1

[7] = test system: CAL-12T
Procedure, shortened: as §1

[8] = test system: NCI-H1395
Procedure, shortened: as §1

[9] = test system: NCI-H2405
Procedure, shortened: as §1

[10] = test system: A-427
Procedure, shortened: as §1

[11] = test system: COR-L 105
Procedure, shortened: as §1

[12] = test system: HCC-44
Procedure, shortened: as §1

[13] = test system: HCC-15
Procedure, shortened: as §1

[14] = test system: LCLC-97TM1
Procedure, shortened: as §1

[15] = test system: NCI-H2342
Procedure, shortened: as §1

[16] = test system: SW 1573
Procedure, shortened: as §1

[17] = test system: NCI-H1734
Procedure, shortened: as §1

[18] = test system: NCI-H2347
Procedure, shortened: as §1

[19] = test system: NCI-H838
Procedure, shortened: as §1

[20] = test system: NCI-H520
Procedure, shortened: as §1

[21] = test system: EPLC-272H
Procedure, shortened: as §1

## CN1CCN(CCOc2cc(OC3CCOCC3)c3c(Nc4c(Cl)ccc5c4OCO5)ncnc3c2)CC1 [Saracatinib] + Cc1cc(Nc2cc(N3CCN(C)CC3)nc(Sc3ccc(NC(=O)C4CC4)cc3)n2)n[nH]1 [Tozasertib] (partner 0.1 µM)
[1]; first compound 0.02 µM
  relative viability: 0.314
[1]; first compound 0.2 µM
  relative viability: 0.368
[1]; first compound 0.6325 µM
  relative viability: 0.268
[1]; first compound 2 µM
  relative viability: 0.262
[2]; first compound 0.02 µM
  relative viability: 0.546
[2]; first compound 0.2 µM
  relative viability: 0.533
[2]; first compound 0.6325 µM
  relative viability: 0.645
[2]; first compound 2 µM
  relative viability: 0.532
[3]; first compound 0.02 µM
  relative viability: 0.432
[3]; first compound 0.2 µM
  relative viability: 0.382
[3]; first compound 0.6325 µM
  relative viability: 0.461
[3]; first compound 2 µM
  relative viability: 0.343
[4]; first compound 0.02 µM
  relative viability: 0.206
[4]; first compound 0.2 µM
  relative viability: 0.175
[4]; first compound 0.6325 µM
  relative viability: 0.213
[4]; first compound 2 µM
  relative viability: 0.185
[5]; first compound 0.02 µM
  relative viability: 0.697
[5]; first compound 0.2 µM
  relative viability: 0.709
[5]; first compound 0.6325 µM
  relative viability: 0.675
[5]; first compound 2 µM
  relative viability: 0.33
[6]; first compound 0.02 µM
  relative viability: 0.39
[6]; first compound 0.2 µM
  relative viability: 0.427
[6]; first compound 0.6325 µM
  relative viability: 0.464
[6]; first compound 2 µM
  relative viability: 0.408
[7]; first compound 0.02 µM
  relative viability: 0.361
[7]; first compound 0.2 µM
  relative viability: 0.387
[7]; first compound 0.6325 µM
  relative viability: 0.283
[7]; first compound 2 µM
  relative viability: 0.194
[8]; first compound 0.02 µM
  relative viability: 0.722
[8]; first compound 0.2 µM
  relative viability: 0.763
[8]; first compound 0.6325 µM
  relative viability: 0.83
[8]; first compound 2 µM
  relative viability: 0.619
[9]; first compound 0.02 µM
  relative viability: 0.778
[9]; first compound 0.2 µM
  relative viability: 0.661
[9]; first compound 0.6325 µM
  relative viability: 0.706
[9]; first compound 2 µM
  relative viability: 0.521
[10]; first compound 0.02 µM
  relative viability: 0.215
[10]; first compound 0.2 µM
  relative viability: 0.18
[10]; first compound 0.6325 µM
  relative viability: 0.207
[10]; first compound 2 µM
  relative viability: 0.206
[11]; first compound 0.02 µM
  relative viability: 0.358
[11]; first compound 0.2 µM
  relative viability: 0.323
[11]; first compound 0.6325 µM
  relative viability: 0.309
[11]; first compound 2 µM
  relative viability: 0.282
[12]; first compound 0.02 µM
  relative viability: 0.967
[12]; first compound 0.2 µM
  relative viability: 0.891
[12]; first compound 0.6325 µM
  relative viability: 1.48
[12]; first compound 2 µM
  relative viability: 1.05
[13]; first compound 0.02 µM
  relative viability: 0.403
[13]; first compound 0.2 µM
  relative viability: 0.372
[13]; first compound 0.6325 µM
  relative viability: 0.365
[13]; first compound 2 µM
  relative viability: 0.24
[14]; first compound 0.02 µM
  relative viability: 0.21
[14]; first compound 0.2 µM
  relative viability: 0.173
[14]; first compound 0.6325 µM
  relative viability: 0.287
[14]; first compound 2 µM
  relative viability: 0.185
[15]; first compound 0.02 µM
  relative viability: 0.499
[15]; first compound 0.2 µM
  relative viability: 0.608
[15]; first compound 0.6325 µM
  relative viability: 0.473
[15]; first compound 2 µM
  relative viability: 0.496
[16]; first compound 0.02 µM
  relative viability: 0.142
[16]; first compound 0.2 µM
  relative viability: 0.207
[16]; first compound 0.6325 µM
  relative viability: 0.189
[16]; first compound 2 µM
  relative viability: 0.188
[17]; first compound 0.02 µM
  relative viability: 0.305
[17]; first compound 0.6325 µM
  relative viability: 0.261
[17]; first compound 2 µM
  relative viability: 0.24
[18]; first compound 0.02 µM
  relative viability: 0.514
[18]; first compound 0.2 µM
  relative viability: 0.517
[18]; first compound 0.6325 µM
  relative viability: 0.539
[18]; first compound 2 µM
  relative viability: 0.518
[19]; first compound 0.02 µM
  relative viability: 0.243
[19]; first compound 0.2 µM
  relative viability: 0.241
[19]; first compound 0.6325 µM
  relative viability: 0.264
[19]; first compound 2 µM
  relative viability: 0.246
[20]; first compound 0.02 µM
  relative viability: 0.407
[20]; first compound 0.6325 µM
  relative viability: 0.383
[20]; first compound 2 µM
  relative viability: 0.314
[21]; first compound 0.02 µM
  relative viability: 0.278
[21]; first compound 0.2 µM
  relative viability: 0.34
[21]; first compound 0.6325 µM
  relative viability: 0.179
[21]; first compound 2 µM
  relative viability: 0.157

## CN1CCN(CCOc2cc(OC3CCOCC3)c3c(Nc4c(Cl)ccc5c4OCO5)ncnc3c2)CC1 [Saracatinib] + O=C(CCCCCCC(=O)Nc1ccccc1)NO [Vorinostat] (partner 1 µM)
[1]; first compound 0.02 µM
  relative viability: 0.652
[1]; first compound 0.2 µM
  relative viability: 0.591
[1]; first compound 0.6325 µM
  relative viability: 0.73
[1]; first compound 2 µM
  relative viability: 0.566
[2]; first compound 0.02 µM
  relative viability: 0.683
[2]; first compound 0.2 µM
  relative viability: 0.407
[2]; first compound 0.6325 µM
  relative viability: 0.676
[2]; first compound 2 µM
  relative viability: 0.367
[3]; first compound 0.02 µM
  relative viability: 0.472
[3]; first compound 0.2 µM
  relative viability: 0.462
[3]; first compound 0.6325 µM
  relative viability: 0.477
[3]; first compound 2 µM
  relative viability: 0.477
[4]; first compound 0.02 µM
  relative viability: 0.376
[4]; first compound 0.2 µM
  relative viability: 0.363
[4]; first compound 0.6325 µM
  relative viability: 0.388
[4]; first compound 2 µM
  relative viability: 0.253
[5]; first compound 0.02 µM
  relative viability: 0.72
[5]; first compound 0.2 µM
  relative viability: 0.716
[5]; first compound 0.6325 µM
  relative viability: 0.725
[5]; first compound 2 µM
  relative viability: 0.563
[6]; first compound 0.02 µM
  relative viability: 0.757
[6]; first compound 0.2 µM
  relative viability: 0.668
[6]; first compound 0.6325 µM
  relative viability: 0.777
[6]; first compound 2 µM
  relative viability: 0.68
[7]; first compound 0.02 µM
  relative viability: 0.804
[7]; first compound 0.2 µM
  relative viability: 0.764
[7]; first compound 0.6325 µM
  relative viability: 0.91
[7]; first compound 2 µM
  relative viability: 0.696
[8]; first compound 0.02 µM
  relative viability: 0.766
[8]; first compound 0.2 µM
  relative viability: 0.632
[8]; first compound 0.6325 µM
  relative viability: 0.706
[8]; first compound 2 µM
  relative viability: 0.464
[9]; first compound 0.02 µM
  relative viability: 0.89
[9]; first compound 0.2 µM
  relative viability: 0.788
[9]; first compound 0.6325 µM
  relative viability: 0.847
[9]; first compound 2 µM
  relative viability: 0.441
[10]; first compound 0.02 µM
  relative viability: 0.899
[10]; first compound 0.2 µM
  relative viability: 0.852
[10]; first compound 0.6325 µM
  relative viability: 0.795
[10]; first compound 2 µM
  relative viability: 0.863
[11]; first compound 0.02 µM
  relative viability: 0.879
[11]; first compound 0.2 µM
  relative viability: 0.668
[11]; first compound 0.6325 µM
  relative viability: 0.819
[11]; first compound 2 µM
  relative viability: 0.625
[12]; first compound 0.02 µM
  relative viability: 1.14
[12]; first compound 0.2 µM
  relative viability: 1.14
[12]; first compound 0.6325 µM
  relative viability: 1
[12]; first compound 2 µM
  relative viability: 1.19
[13]; first compound 0.02 µM
  relative viability: 0.902
[13]; first compound 0.2 µM
  relative viability: 0.859
[13]; first compound 0.6325 µM
  relative viability: 0.931
[13]; first compound 2 µM
  relative viability: 0.861
[14]; first compound 0.02 µM
  relative viability: 0.775
[14]; first compound 0.2 µM
  relative viability: 0.411
[14]; first compound 0.6325 µM
  relative viability: 0.839
[14]; first compound 2 µM
  relative viability: 0.554
[15]; first compound 0.02 µM
  relative viability: 0.774
[15]; first compound 0.2 µM
  relative viability: 0.747
[15]; first compound 0.6325 µM
  relative viability: 0.782
[15]; first compound 2 µM
  relative viability: 0.833
[16]; first compound 0.02 µM
  relative viability: 0.699
[16]; first compound 0.2 µM
  relative viability: 0.702
[16]; first compound 0.6325 µM
  relative viability: 0.664
[16]; first compound 2 µM
  relative viability: 0.47
[17]; first compound 0.02 µM
  relative viability: 0.793
[17]; first compound 0.6325 µM
  relative viability: 0.837
[17]; first compound 2 µM
  relative viability: 0.652
[18]; first compound 0.02 µM
  relative viability: 0.558
[18]; first compound 0.2 µM
  relative viability: 0.413
[18]; first compound 0.6325 µM
  relative viability: 0.719
[18]; first compound 2 µM
  relative viability: 0.622
[19]; first compound 0.02 µM
  relative viability: 0.685
[19]; first compound 0.2 µM
  relative viability: 0.681
[19]; first compound 0.6325 µM
  relative viability: 0.721
[19]; first compound 2 µM
  relative viability: 0.765
[20]; first compound 0.02 µM
  relative viability: 0.652
[20]; first compound 0.2 µM
  relative viability: 0.471
[20]; first compound 0.6325 µM
  relative viability: 0.598
[20]; first compound 2 µM
  relative viability: 0.477
[21]; first compound 0.02 µM
  relative viability: 0.306
[21]; first compound 0.2 µM
  relative viability: 0.562
[21]; first compound 0.6325 µM
  relative viability: 0.63
[21]; first compound 2 µM
  relative viability: 0.424
